Results published in patent US20260055118A1, “VISIBLE LIGHT SENSITIVE PHOTOREMOVABLE PROTECTING GROUPS, PREPARATION PROCESS THEREOF, PHOTOACTIVATABLE CONJUGATES COMPRISING THEM AND USES THEREOF” (HUN-REN TERMÉSZETTUDOMÁNYI KUTATÓKÖZPONT, priority 2022, published 2026).

Tests used:
Type in all cases: physicochemical
[1] = Uncaging experiments, LED irradiation followed by HPLC-UV-MS
Procedure: (§1) The uncaging experiments were performed using green (4 W input power, λmax=549 nm half-width: 16 nm, output power: 72 mW), orange (4 W input power, λmax=605 nm half-width: 10 nm, output power: 140 mW) and red (4 W input power, λmax=658 nm half-width: 10 nm, output power: 210 mW) LEDs as light source. Sample solutions were prepared, each containing 1 ml of solvent (90% v/v water-MeCN or 90% PBS-MeCN or 100% methanol for the photochemical quantum yield determination) and 0.1 mM or 0.05 mM concentration of the photoactivatable conjugates. The samples were irradiated for a given time using continuous water cooling for the light source. Then, the samples were transferred to the HPLC-UV-MS system and the chromatograms were recorded. The traces at 195 nm, 254 nm or 369 nm (dependent on the cargo moieties) and at the absorption maxima of the photoremovable protecting groups (530 nm, 570 nm or 640 nm) were compared and the corresponding peaks were integrated and compared to reference calibration sets. The possible photoproducts were identified by their corresponding m/z value and also from the UV/VIS spectra from the DAD-equipped instrument. For the dark stability experiments, the HPLC sample solutions were kept in the dark and chromatograms were recorded multiple times.
The photouncaging was evaluated by HPLC-MS using green (4 W input power, λmax=549 nm half-width: 16 nm, output power: 72 mW), orange (4 W input power, λmax=605 nm half-width: 10 nm, output power: 140 mW) and red (4 W input power, λmax=658 nm half-width: 10 nm, for Q=CMe2 output power: 210 mW) LED irradiation. For all compounds the experiments were performed in 90% water/MeCN mixtures as well as in 90% PBS/MeCN (0.1 mM concentration). In all cases, the irradiation led to the release of the model active agents with significant differences based on the photoremovable protecting group, cargo unit and the connecting chemical moiety as well as on the water content of the uncaging medium. Comparing the green light absorbing target conjugates, irradiation of 39 led to the release of 54% phenylacetic acid in 60 s (FIG. 6b), while 180 s (for 50%) was required for the same result in case of 41. Approximately 65% of phenylacetic acid was released after 180 s of irradiation with orange light from model target conjugate 41 (FIG. 6a). The current state of the art BODIPY derivative (for the structure, see the next section),^20,21 released only 12% phenylacetic acid after irradiation for 1800 s. Contrary to the general expectations that increasing the wavelength diminishes photolysis rates, the uncaging of the redshifted Q=CMe2 derivative 43 was also very effective, reaching >70% release of phenylacetic acid in 120 s after red light irradiation (FIG. 6c). The high efficiency of 43 as a red light-activatable photoremovable protecting group was also compared to a π-extended BODIPY derivative (substrate 7 in REF^21, using methanol as the solvent in a concentration of 0.1 mM), the current state of the art in this region of visible light.
Importantly, except in the case of compounds wherein the connecting chemical moiety was a carbonate moiety (i.e., compound 51, FIG. 6f), the target conjugates were stable in water as well as in PBS for 24 hours in the dark. The stability and uncaging rates of several leaving groups was also assessed. Comparing the most important functional groups (carboxylic acid, amine, phenol, alcohol) in potential active agents connected via the typical linkages in the target conjugates, the carbonate bond was the most labile (compound 51, >70% decomposition in 30 s with red light at 50% power) although the long-term dark stability was poor. None of the other model active agents were released in significant quantities, however, after 24-28 hours in the dark (for dark stability data see FIGS. 6a-6h, right side).
Using HPLC-MS, not only the appearance of the released model active agents could be monitored but also the products of photolysis were detectable. […]

[2] = Spectroscopic properties of the target conjugates in PBS; conditions: for ε (molar absorption coefficient): at the absorption maximum
Procedure: All starting materials were obtained from commercial suppliers and used without further purification. Analytical thin-layer chromatography (TLC) was performed on silica gel 60 F254 precoated aluminum TLC plates from Merck. Flash column chromatography was performed on Teledyne Isco CombiFlash® Rf+ automated flash chromatographer with silica gel (25-40 μm) from Zeochem. NMR spectra were recorded on a Varian Inova 500 MHz spectrometer. Chemical shifts (δ) are given in parts per million (ppm) using solvent signals or TMS as the reference. Coupling constants (J) are reported in Hertz (Hz). Analytical RP-HPLC-UV/Vis-MS measurements were employed using a Shimadzu LCMS-2020 instrument applying a Gemini C18 column (100×2.00 mm I.D.) in which the stationary phase is […] with a pore size of 110 Å. The chromatograms were detected by a UV-Vis diode array (190-800 nm) and an ESI-MS detector. The following linear gradient elution profile was applied, 0 min 0% B; 6.5 min 100% B; 7 min 0% B; 8 min. 0% B) with eluent A (2% HCOOH, 5% MeCN and 93% water) and B (2% HCOOH, 80% MeCN and 18% water) at a flow rate of 1.0 mL min-1 at 30° C. The samples were dissolved in MeCN—water mixtures. Spectroscopic measurements were performed on a Jasco FP 8300 spectrofluorometer. Quartz cuvettes with path length of 1 cm were used.
The spectroscopic properties of the target conjugates were determined in PBS. […] Compounds with Q=O have absorption bands in the green-yellow region while Q=CMe2 derivatives absorb in the red (up to 700 nm). All of the compounds have moderate to high absorption coefficients and significant fluorescence. The spectroscopic details can be found in Table 1. In the table, λmax means absorption maximum; λem means fluorescence emission maximum; s means molar absorption coefficient (at the absorption maximum).

[3] = Uncaging quantum yield determination relative to BODIPY reference; conditions: for ε × Φu, uncaging cross-section / quantum efficiency: at the wavelength in parentheses beside each value (538-660 nm); for Φu, uncaging quantum yield: calculated from active agent release; for Φu, uncaging quantum yield / Φdeg, degradation quantum yield: green light irradiation; for Φdeg, degradation quantum yield: calculated from the disappearance of the target conjugate
Procedure: The relative photochemical quantum yields of the uncaging reactions together with the degradation quantum yields were determined from the results of the quantitative HPLC-UV experiments. In all cases, green light irradiation was used since all target conjugates absorbed in this range as well as the reference BODIPY. The photochemical quantum yields were determined using the following equation:
[formula] • where • Φu is the photochemical quantum yield of the sample • Φu,ref is the photochemical quantum yield of the reference • k is the obtained reaction rate constant of the photoreaction of the sample • kref is the obtained reaction rate constant of the photoreaction of the reference • c is the concentration of the sample • cref is the concentration of the reference • V is the volume of the sample • Vref is the volume of the reference • a is the absorption correction factor of the sample • aref is the absorption correction factor of the reference
The absorption correction factors (a) were determined from the molar absorption coefficients and the green LED emission data obtained by the fluorimeter. […] In other words, the transmittance at each wavelength together with the emission data of the light source can be used to calculate the percentage of absorbed photons according to the following equation:
[formula] • where • T(λ) is the transmittance at each wavelength (determined from the molar absorption coefficients) • F(λ) is the LED emission at each wavelength • λmin, λmax is the LED emission range.
The rate constants of the photoreactions were determined by considering the reactions monoexponential with an initial linear phase (up to 10-20% degradation). First, the concentration vs. HPLC-UV peak were determined for each cargo moieties. […] The rate constants were determined for both the reference (with known Φu) and the sample. For reference, a commonly known BODIPY derivative was used with a similar phenylacetic acid-derived cargo unit (substrate 7 from REF^40), Φu=0.15%:
The calculated photochemical quantum yields together with uncaging cross-sections or quantum efficiencies (product of the molar absorption coefficient at a given wavelength, shown in parentheses and the photochemical quantum yield) are shown in Table 2. In the table, Φu is the photochemical quantum yield of the release; Φdeg is the photochemical quantum yield of degradation; ε×Φu is the uncaging cross-section or quantum efficiency of the release at a given wavelength in parentheses.

[4] = Dark stability experiments (HPLC); conditions: water and PBS, 24 hours in the dark
Procedure: as §1, with “The traces at 195 nm, 254 nm or 369 nm (dependent on the cargo moieties) and at the absorption maxima of the photoremovable protecting groups (530 nm, 570 nm or 640 nm) were compared and the corresponding peaks were integrated and compared to reference calibration sets. The possible photoproducts were identified by their corresponding m/z value and also from the UV/VIS spectra from the DAD-equipped instrument.” left out
Importantly, except in the case of compounds wherein the connecting chemical moiety was a carbonate moiety (i.e., compound 51, FIG. 6f), the target conjugates were stable in water as well as in PBS for 24 hours in the dark. The stability and uncaging rates of several leaving groups was also assessed. […] None of the other model active agents were released in significant quantities, however, after 24-28 hours in the dark (for dark stability data see FIGS. 6a-6h, right side).

Compound | decomposition ([1]; red light at 50% power, 30 s) [%] | λem (fluorescence emission maximum) [2] [nm] | λmax (absorption maximum) [2] [nm] | ε (molar absorption coefficient) [2] | ε × Φu, uncaging cross-section / quantum efficiency [3] | Φu, uncaging quantum yield [3] [%] | Φdeg, degradation quantum yield [3] [%] | dark stability [4] | irradiation time required for 50% release of phenylacetic acid ([1]; green light) [s] | release of phenylacetic acid ([1]; orange light, 180 s) | release of phenylacetic acid ([1]; green light, 60 s) [%]
CC(OC(=O)Oc1ccccc1)C1=C2C=CC(=[N+]3CCCC3)C=C2C(C)(C)c2cc(N3CCCC3)ccc21.[I-] (centres unmarked) [Compound 51, 1-(9,9-dimethyl-10-(1-((phenoxycarbonyl)oxy)ethyl)-7-(pyrrolidin-1-yl)anthracen-2 (9H)-ylidene)pyrrolidin-1-ium iodide] | > 70 | 676 | 643 | 73 300 M^−1cm^−1 | 13 200 M^−1cm^−1 | 18 | 25 | reduced and poor |  |  | 
CC(OC(=O)Cc1ccccc1)c1c2ccc(=[N+]3CCCC3)cc-2oc2cc(N3CCCC3)ccc12.[I-] (centres unmarked) [Compound 41, 1-(9-(1-(2-phenylacetoxy)ethyl)-6-(pyrrolidin-1-yl)-3H-xanthen-3-ylidene)pyrrolidin-1-ium iodide] |  | 592 | 570 | 70 000 M^−1cm^−1 | 1020 M⁻¹ cm⁻¹ | 1.5 | 1.9 |  | 180 | Approximately 65% | 
CC(OC(=O)Cc1ccccc1)c1c2ccc(=O)cc-2oc2cc(N3CCCC3)ccc12 (centres unmarked) [Compound 39, 1-(3-oxo-6-(pyrrolidin-1-yl)-3H-xanthen-9-yl)ethyl 2-phenylacetate] |  | 564 | 538 | 22 700 M^−1cm^−1 | 1070 M⁻¹ cm⁻¹ | 4.7 | 6.2 |  |  |  | 54
